For experiment [1], the system named is KRAS G12D mutated AGS human gastric adenocarcinoma cells. Description: Proliferation inhibition of KRAS G12D mutant AGS cells (CellTiter-Glo, 3 days; IC50 and single-point inhibition rate at 1 μM). Format: cell-based. Conditions: 72 h, 3 days incubation, max concentration 10 μM. As for the experimental part: This experiment assessed and validated the proliferation inhibitory activity of some compounds of the present invention against KRAS G12D mutant AGS cells.
Incubate at 37° C., 5% CO2, 95% humidity.
The following materials, instruments, and reagents were used in this experiment: Fetal Bovine Serum FBS (GIBCO, Cat #10099-141); CellTiter-Glo® Luminescent Cell Viability Assay (Promega, Cat #G7572); 96-well clear flat-bottom black-wall plate (Corning®, Cat #3603); SpectraMax multimode microplate reader (MD, 2104-0010A); CO2 Incubator (Thermo Scientific, Model 3100 Series); Biosafety cabinet (Thermo Scientific, Model 1300 Series A2); Inverted microscope (Olympus, CKX41SF); AGS cell line was purchased from Nanjing Kebai Biotechnology Co., Ltd., under the lot number CBP60476.
Cell culture and inoculation: The cells in the logarithmic growth phase were harvested, and cell counting was performed using a platelet counter. The cell viability was detected by Trypan Blue exclusion method to ensure that the cell viability was above 90%. The cell concentration was adjusted. Then, 90 μL of the cell suspension was added to each well of a 96-well plate respectively, and the cells in the 96-well plate were cultured at 37° C. and 5% CO2.
Drug dilution and addition: a) For the preparation of drugs for single-point inhibition rate determination: A 10-fold concentrated drug solution was prepared. 10 μL of the drug solution was added to each well of the 96-well plate inoculated with cells to make the working concentration 1 μM, and three replicate wells were set for each drug concentration; b) For the preparation of drugs for IC50 determination: A 10-fold concentrated drug solution was prepared. 10 μL of the drug solution was added to each well of the 96-well plate inoculated with cells to make the maximum working concentration 10 μM, with a 3.16× dilution and a total of 9 concentrations. Three replicate wells were set for each drug concentration. The cells in the 96-well plate with the added drugs were incubated at 37° C. and 5% CO2 for another 3 days, and then the CTG assay was performed.
The CTG reagent was thawed, and the cell plate was equilibrated to room temperature for 30 minutes. An equal volume of CTG solution was added to each well, and the plate was shaken on an orbital shaker for 5 minutes to lyse the cells. The cell plate was placed at room temperature for 20 minutes to stabilize the luminescence signal, and then the luminescence value was read.
The data were analyzed using GraphPad Prism 7.0 software. The data were fitted by nonlinear S-curve regression to obtain the dose-response curve, and the IC50 value was calculated accordingly.

For experiment [2] the test system is unchanged. Description: Proliferation inhibition of KRAS G12D mutant AGS cells, another experiment with similar protocol (includes MRTX1133). The class given is cell-based. As to conditions: Homo sapiens. As for the experimental part:
In another experiment, using a protocol similar to the one described above, the inhibitory activity of some representative compounds of the present invention against KRAS G12D mutated AGS human gastric adenocarcinoma cells was determined.
The synthesis of compound MRTX1133 was performed according to the method described in J. Med. Chem. 2022, 65, 4, 3123-3133.

Molecules are shown by their SMILES.

Turning to `C#Cc1c(F)ccc2cc(O)cc(-c3c(F)cc4c(N5CC6CCC(C5)N6)nc(OCC5(C)CCCCN(CCOC)C5)nc4c3F)c12` [Example 8, 4-(4-((1R,5S)-3,8-diazabicyclo[3.2.1]octane-3-yl)-6,8-difluoro-2-((1-(2-methoxyethyl)-3-methylazepan-3-yl)methoxy)quinazolin-7-yl)-5-ethynyl-6-fluoronaphthalen-2-ol·triformate], in experiment [1], it took 251 nM to reach half-maximal inhibition (IC50).
For the compound `C#Cc1c(F)ccc2cc(O)cc(-c3c(F)cc4c(N5CC6CCC(C5)N6)nc(OCC5(C)CN(C)CCC5(F)F)nc4c3F)c12` (atropisomer, axis not shown; (Ra)) [Example 6, (Ra)-4-(4-((1R,5S)-3,8-diazabicyclo[3.2.1]octan-3-yl)-2-((4,4-difluoro-1,3-dimethylpiperidin-3-yl)methoxy)-6,8-difluoroquinazolin-7-yl)-5-ethynyl-6-fluoronaphthalen-2-ol], in experiment [1], the half-inhibitory concentration (IC50) (as a rule, the concentration needed to halve the response being measured) came to 55 nM.
On the same count and under the same terms, the figure for `C#Cc1c(F)ccc2cc(O)cc(-c3c(F)cc4c(N5CC6CCC(C5)N6)nc(OCC56CC5CCN(C)C6)nc4c3F)c12` (atropisomer, axis not shown; (Ra)) [Example 9, (Ra)-4-(4-((1R,5S)-3,8-diazabicyclo[3.2.1]octan-3-yl)-6,8-difluoro-2-((3-methyl-3-azabicyclo[4.1.0]heptan-1-yl)methoxy)quinazolin-7-yl)-5-ethynyl-6-fluoronaphthalen-2-ol·diformate] is 347 nM; for `C#Cc1c(F)ccc2cc(O)cc(-c3c(F)cc4c(N5CC6CCC(C5)N6)nc(OCC5(C)CCCN(CCF)C5)nc4c3F)c12` (atropisomer, axis not shown; (Ra)) [Example 4, (Ra)-4-(4-((1R,5S)-3,8-diazabicyclo[3.2.1]octan-3-yl)-6,8-difluoro-2-(1-(2-fluoroethyl)-3-methylpiperidin-3-yl)methoxy)quinazolin-7-yl)-5-ethynyl-6-fluoronaphthalen-2-ol·diformate] it is 88 nM.
Same read-out and setting: to `C#Cc1c(F)ccc2cc(O)cc(-c3c(F)cc4c(N5CC6CCC(C5)N6)nc(OCC5COCCN(C)C5)nc4c3F)c12` (stereo not shown) [Example 7] belongs 781 nM.
Still for that read-out and setting: the figure for `C#Cc1c(F)ccc2cc(O)cc(-c3c(F)cc4c(N5CC6CCC(C5)N6)nc(OCC5(C)CN(C)CCC5OC)nc4c3F)c12` (atropisomer, axis not shown; (Ra)) [Example 5, (Ra)-4-(4-(((1R,5S)-3,8-diazabicyclo[3.2.1]octan-3-yl)-6,8-difluoro-2-(4-methoxy-1,3-dimethylpiperidin-3-yl)methoxy)quinazolin-7-yl)-5-ethynyl-6-fluoronaphthalen-2-ol·diformate] is 175 nM; for `C#Cc1c(F)ccc2cc(O)cc(-c3c(F)cc4c(N5CC6CCC(C5)N6)nc(OCC5(C)CCCN(CCOC)C5)nc4c3F)c12` (atropisomer, axis not shown; (Ra)) [Example 3, (Ra)-4-(4-((1R,5S)-3,8-diazabicyclo[3.2.1]octan-3-yl)-6,8-difluoro-2-(1-(2-methoxyethyl)-3-methylpiperidin-3-yl)methoxy)quinazolin-7-yl)-5-ethynyl-6-fluoronaphthalen-2-ol·formate] it is 158 nM.
In experiment [2], `C#Cc1c(F)ccc2cc(O)cc(-c3c(F)cc4c(N5CC6CCC(C5)N6)nc(OC[C@]5(C)CN(CC)CC[C@@H]5F)nc4c3F)c12` (atropisomer, axis not shown; (Ra)) [Example 50-1, (Ra)-4-(4-((1R,5S)-3,8-diazabicyclo[3.2.1]octan-3-yl)-2-(((35,4S)-1-ethyl-4-fluoro-3-methylpiper-idin-3-yl)methoxy)-6,8-difluoroquinazolin-7-yl)-5-ethynyl-6-fluoronaph-thalen-2-ol] returned an IC50 of 15 nM.
The same measure, in the same setting: to `[2H]C([2H])([2H])N1CC[C@H](C(F)F)[C@](C)(C([2H])([2H])Oc2nc(N3CC4CCC(C3)N4)c3cc(Cl)c(-c4cccc5sc(N)c(C#N)c45)c(F)c3n2)C1` (single isomer, unassigned) [Example 315-2] belongs 13 nM.
Same read-out and setting: the figure for `C#Cc1c(F)ccc2cc(O)cc(-c3ncc4c(N5CC6CCC(C5)N6)nc(OC[C@]5(CC)CN(C)CC[C@@H]5C(F)F)nc4c3F)c12` (racemic) [Example 396, (±)4-(4-((1R,5S)-3,8-diazabicyclo[3.2.1]octan-3-yl)-2-(((3S,4S)-4-(difluoromethyl)-3-ethyl-1-methylpiperidin-3-yl)methoxy)-8-fluoropyrido[4,3-A]pyrimidin-7-yl)-5-ethynyl-6-fluoronaphthalen-2-ol] is 11 nM; for `CCc1c(F)ccc2cc(O)cc(-c3c(F)cc4c(N5CC6CCC(C5)N6)nc(OC[C@]5(C)CN(C)CC[C@@H]5CF)nc4c3F)c12` [Example 99-1] it is 18 nM.
Still for that read-out and setting: to `CN1CC/C(=C\F)[C@](C)(COc2nc(N3CC4CCC(C3)N4)c3cc(Cl)c(-c4cccc5sc(N)c(C#N)c45)c(F)c3n2)C1` (single isomer, unassigned) [Example 313-2] belongs 17 nM.
The compound `C#Cc1c(F)ccc2cc(O)cc(-c3nc(OC)c4c(N5C[C@H]6CC[C@@H](C5)N6)nc(OC[C@]5(C)CN(C)CC[C@@H]5F)nc4c3F)c12` [Example 262, 4-(4-((1R,5S)-3,8-diazabicyclo[3.2.1]octan-3-yl)-8-fluoro-2-(((3S,4S)-4-fluoro-1,3-dimethylpiperidin-3-yl)methoxy)-5-methoxypyrido[4,3-d]pyrimidin-7-yl)-5-ethynyl-6-fluoronaphthalen-2-ol] had a 50% inhibitory concentration (IC50) in experiment [2] of 15 nM.
The same measure, in the same setting: to `[2H]C([2H])([2H])[C@@]1(COc2nc(N3CC4CCC(C3)N4)c3cnc(-c4cc(O)cc5ccc(F)c(C#C)c45)c(F)c3n2)CN(C)CC[C@@H]1C(F)F` (single isomer, unassigned) [Example 426, (Sa) or (Ra)-4-(4-((1R,5S)-3,8-diazabicyclo[3.2.1]octan-3-yl)-2-(((3S,4S)-4-(difluoromethyl)-1-methyl-3-(methyl-d3)piperidin-3-yl)methoxy)-8-fluoropyrido[4,3-d]pyrimidin-7-yl)-5-ethynyl-6-fluoronaphthalen-2-ol] belongs 7 nM.
`C#Cc1c(F)ccc2cc(O)cc(-c3c(F)cc4c(N5CC6CCC(C5)N6)nc(OCC5(C)CCCN(C)C5)nc4c3F)c12` (atropisomer, axis not shown; (Ra)) [Example 2, (Ra)-4-(4-((1R,5S)-3,8-diazabicyclo[3.2.1]octan-3-yl)-2-((1,3-dimethylpiperidin-3-yl)methoxy)-6,8-difluoroquinazolin-7-yl)-5-ethynyl-6-fluoronaphthalen-2-ol·dicarboxylate] registered an IC50 in experiment [1] of 50 nM.
For `CN1CC[C@H](C(F)F)[C@](C)(COc2nc(N3C[C@H]4CC[C@@H](C3)N4)c3cc(C(F)(F)F)c(-c4c(F)ccc5sc(N)c(C#N)c45)c(F)c3n2)C1` (single isomer, unassigned) [Example 363-1], the IC50 in experiment [2] came to 4 nM.
Take `CN1CC/C(=C\F)[C@](C)(COc2nc(N3CC4CCC(C3)N4)c3cc(C(F)(F)F)c(-c4cccc5sc(N)c(C#N)c45)c(F)c3n2)C1` (single isomer, unassigned) [Example 318-1]: the IC50 in experiment [2] turned out to be 9 nM.
Still for that read-out and setting: to `C#Cc1c(F)ccc2cc(O)cc(-c3c(F)cc4c(N5CC6CCC(C5)N6)nc(OC[C@]5(C)CN(C)CCC5=C)nc4c3F)c12` (atropisomer, axis not shown; (Ra)) [Example 40, (Ra)-4-(4-((1R,5S)-3,8-diazabicyclo[3.2.1]octan-3-yl)-2-(((S)-1,3-dimethyl-4-methylenepiperidin-3-yl)methoxy)-6,8-difluoroquinazolin-7-yl)-5-ethynyl-6-fluoronaphthalen-2-ol] belongs 9 nM.
Consider `C#Cc1c(F)ccc2cc(O)cc(-c3c(F)cc4c(N5CC6CCC(C5)N6)nc(OCC5(F)CCCN(C)C5)nc4c3F)c12` (atropisomer, axis not shown; (Ra)) [Example 1, (Ra)-4-(4-((1R,5S)-3,8-diazabicyclo[3.2.1]octan-3-yl)-6,8-difluoro-2-(3-fluoro-1-methylpiperidin-3-yl)methoxy)quinazolin-7-yl)-5-ethynyl-6-fluoronaphthalen-2-ol·diformate], for which it took 94 nM to reach half-maximal inhibition in experiment [1] (IC50).

(Values after patent US20260176284A1, “Compounds with Anti-KRAS Mutated Tumor Activity” (Trasveda Ltd., priority 2022, published 2026).)
